From patent publication US20220184032A1, “INDOLINE DERIVATIVES FOR TREATMENT AND/OR PREVENTION OF FIBROSIS DISEASES” (Taipei Medical University, priority 2015, published 2022)
Read-outs that look alike come from different tables or passages of the source.

Tests used:
[1] = test system: CHO
[2] = test system: BLM-induced lung fibrosis; assay: Bleomycin (BLM)-induced lung fibrosis mice model, therapeutic model; format: in vivo; conditions: days 10 to 38 after BLM
Experimental: (§1) In preventive model, C57BL/6JNarl mice (8 weeks) were treated with bleomycin (BLM, 0.05 U/50 μl) or PBS (50 μl) by endotracheal administration. TMU-C-0012 (25, 50, 100 mg/kg/day, q.d.) and dexamethasone (0.5 mg/kg/day, q.d.) were administered orally to bleomycin-treated mice from 1 to 21 days after BLM treatment. On day 21, the mice were sacrificed and, the histologic analysis of lung tissue was performed by hematoxylin-eosin (H&E) staining (original magnification, ×100). In therapeutic model, C57BL/6JNarl mice (8 weeks) were treated with bleomycin (BLM, 0.05 U/50 μl) or PBS (50 μl) by endotracheal administration. TMU-C-0012 (25, 50, 100 mg/kg/day, q.d.) and pirfenidone (200 mg/kg/day, q.d.) were administered orally to bleomycin-treated mice from 10 to 38 days after BLM treatment. On day 39, the mice were sacrificed, and the histologic analysis of lung tissue was performed by hematoxylin-eosin (H&E) staining (original magnification, ×100).

[3] = test system: BLM-induced lung fibrosis; assay: Bleomycin (BLM)-induced lung fibrosis mice model, preventive model; format: in vivo; conditions: days 1 to 21 after BLM
Experimental: as §1

[4] = test system: Salmonella typhimurium TA98; assay: Ames test, TA98
Experimental: (§2) Two histidine auxotrophic mutants (TA98 and TA100) of Salmonella typhimurium were used. Test strains were obtained from the frozen working stock vial and thawed at room temperature. A 0.2 mL aliquot was inoculated into 25 mL nutrient broth medium and then incubated at 35-37° C. with shaking (120 rpm) for 16-18 hours. The test substance was dissolved in DMSO with 10-fold dilutions to obtain 4 stock concentrations at 30,000, 3,000, 300 and 30 μg/mL. Rat liver microsome enzyme homogenate (S9) mixture was prepared containing 8 mM MgCl2, 33 mM KCl, 4 mM NADP, 5 mM glucose-6-phosphate, 100 mM NaH2PO4 (pH 7.4) and 4% (v/v) Aroclor 1254-induced male rat liver microsome enzyme homogenate (S9). A […] aliquot of test compound stock solution was combined with 0.1 mL strain culture and with 0.5 mL rat liver enzyme homogenate (S9) mixture or 0.5 mL PBS, and then the mixture was incubated at 35-37° C. with shaking (120 rpm) for 20 min. Molten top agar (2 mL containing 0.05 mM histidine and 0.05 mM biotin) was added, and then the mixture was poured onto the surface of a minimal glucose agar plate (30 mL of bottom agar per petri plate) to obtain final test substance concentrations at 3000, 300, 30 and 3μg/plate. The plates were incubated at 37° C. for 72 hours, and then the numbers of His+ revertant colonies were counted. Treatments resulting in a three-fold increase (≥3×) in revertant colonies compared to the vehicle control were considered mutagenic. Treatments that reduced the colony counts to ≤50% of the vehicle control were considered cytotoxic. Assays were performed in triplicate.

[5] = test system: Salmonella typhimurium TA100; assay: Ames test, TA100
Experimental: as §2

[6] = test system: OVA-induced lung fibrosis; assay: OVA lung fibrosis mice model; format: in vivo; conditions: weeks 4 to 12
Experimental: C57BL/6JNarl mice (8 weeks) were treated with OVA (50 μg/50 μl/day) or PBS (50 μl/day) by i.p. injection for 4 weeks. Then, mice were exposure of OVA (5% aerosol exposure) or PBS (aerosol exposure) for 8 weeks. TMU-C-0012 (25 mg/kg/day, q.d.) and dexamethasone (25 mg/kg/day, q.d.) were administered orally to OVA-injected mice from 4 weeks to 12 weeks. On weeks 12, the mice were sacrificed, and the histologic analysis of lung tissue was performed by hematoxylin-eosin (H&E) staining (original magnification, ×100).

[7] = test system: CC14-induced liver fibrosis; assay: CC14-induced liver fibrosis in mice; format: in vivo; conditions: weeks 2 to 6
Experimental: C57BL/6JNarl mice (8 weeks) were treated with CC14 (1 μl/μg/BW, q.w.) or PBS (1 μl/μg/BW, q.w.) by i.p. injection for 6 weeks. TMU-C-0012 (25, 50, 100 mg/kg/day, q.d.) and pirfenidone (250 mg/kg/day, q.d.) were administered orally to CC14-injected mice from 2 weeks to 6 weeks. On day 43, the mice were sacrificed, and the α-SMA analysis of liver tissue was performed by IHC staining (original magnification, ×100).

[8] = in vitro; conditions: Chinese hamster, CHO cells with S9, % Cytotoxicity Cell Numbers; for cytotoxicity at 31 µM: 3.1E−05 M
[9] = reference compound, first section (CHO + S9, HCA), 3.6E−05 M
[10] = TA98, Without S9, 3000 μg/plate
[11] = TA100, Without S9, 300 μg/plate
[12] = TA100, Without S9, 3000 μg/plate
[13] = first section (CHO + S9, HCA), 1.3E−04 M
[14] = first section (CHO + S9, HCA), 2.5E−04 M
[15] = first section (CHO + S9, HCA), 3.1E−05 M
[16] = first section (CHO + S9, HCA), 5.0E−04 M
[17] = first section (CHO + S9, HCA), 6.3E−05 M
[18] = second section (CHO + S9, HCA), 1.6E−05 M
[19] = second section (CHO + S9, HCA), 3.1E−05 M
[20] = second section (CHO + S9, HCA), 7.8E−06 M

In the case of `O=P1(N(CCCl)CCCl)NCCCO1` (stereo not shown) [Cyclophosphamide, reference compound], the “% Cytotoxicity CBPI Index” value [1, 9] is reported as 46.3%, the “% Micronucleated Cells” value [1, 9] is reported as 5.31% and the “Test Result” value [1, 9] is reported as “+ (p < 0.05 by t-test and % of micronucleated cells at least 3-fold higher than background levels.)”.

For `CO[C@@]12[C@H](COC(N)=O)C3=C(C(=O)C(C)=C(N)C3=O)N1C[C@@H]1N[C@@H]12` [Mitomycin C, reference compound], the “% Micronucleated Cells” value ([1]; reference compound, second section (CHO + S9, HCA), 3.0E−07 M) was 4.38%.

In the case of `O=C(/C=C/c1ccc2c(c1)CCN2S(=O)(=O)c1ccccc1)NO` [TMU-C-0012, 3-(1-Benzenesulfonyl-2,3-dihydro-1H-indol-5-yl)-N-hydroxyacrylamide], the “inhibition of BLM-induced lung fibrosis” value ([2]; 25, 50, 100 mg/kg/day q.d. orally, H&E lung histology day 39) is reported as “inhibits BLM-induced lung fibrosis in a dose-dependent manner”, the “efficacy in inhibition compared with pirfenidone” value ([2]; pirfenidone 200 mg/kg/day q.d. orally) is reported as “higher than pirfenidone” and the “inhibition of BLM-induced lung fibrosis” value ([3]; 25, 50, 100 mg/kg/day q.d. orally, H&E lung histology day 21) is reported as “inhibits BLM-induced lung fibrosis in a dose-dependent manner”. The “efficacy in the inhibition compared with dexamethasone” value ([3]; dexamethasone 0.5 mg/kg/day q.d. orally) was “higher than dexamethasone”, the Cytotoxicity ([4]; TA98, With S9, 3 μg/plate) was “−” and the Mutagenicity ([4]; TA98, With S9, 3 μg/plate) was “−”. The Cytotoxicity ([4]; TA98, With S9, 30 μg/plate) was “−”, the Mutagenicity ([4]; TA98, With S9, 30 μg/plate) was “−” and the Cytotoxicity ([4]; TA98, With S9, 300 μg/plate) was “−”. The Mutagenicity ([4]; TA98, With S9, 300 μg/plate) was “−”, the Cytotoxicity ([4]; TA98, With S9, 3000 μg/plate) was “−” and the Mutagenicity ([4]; TA98, With S9, 3000 μg/plate) was “−”. For the same molecule, the Cytotoxicity ([4]; TA98, Without S9, 3 μg/plate) was “−”, the Mutagenicity ([4]; TA98, Without S9, 3 μg/plate) was “−” and the Cytotoxicity ([4]; TA98, Without S9, 30 μg/plate) was “−”. The Mutagenicity ([4]; TA98, Without S9, 30 μg/plate) was “−”, the Cytotoxicity ([4]; TA98, Without S9, 300 μg/plate) was “−” and the Mutagenicity ([4]; TA98, Without S9, 300 μg/plate) was “−”. The Cytotoxicity [4, 10] was “−”, the Mutagenicity [4, 10] was “−” and the “genotoxicity (Ames test results)” value ([4]; overall Ames test result, TA98 and TA100, with and without S9) was “negative”. The Cytotoxicity ([5]; TA100, With S9, 3 μg/plate) was “−”, the Mutagenicity ([5]; TA100, With S9, 3 μg/plate) was “−” and the Cytotoxicity ([5]; TA100, With S9, 30 μg/plate) was “−”. For the same molecule, the Mutagenicity ([5]; TA100, With S9, 30 μg/plate) was “−”, the Cytotoxicity ([5]; TA100, With S9, 300 μg/plate) was “−” and the Mutagenicity ([5]; TA100, With S9, 300 μg/plate) was “−”. For the same molecule, the Cytotoxicity ([5]; TA100, With S9, 3000 μg/plate) was “−”, the Mutagenicity ([5]; TA100, With S9, 3000 μg/plate) was “−” and the Cytotoxicity ([5]; TA100, Without S9, 3 μg/plate) was “−”. For the same molecule, the Mutagenicity ([5]; TA100, Without S9, 3 μg/plate) was “−”, the Cytotoxicity ([5]; TA100, Without S9, 30 μg/plate) was “−” and the Mutagenicity ([5]; TA100, Without S9, 30 μg/plate) was “−”. For the same molecule, the Cytotoxicity [5, 11] was “−”, the Mutagenicity [5, 11] was “−” and the Cytotoxicity [5, 12] was “−”. For the same molecule, the Mutagenicity [5, 12] was “−”, the “inhibition of OVA-induced lung fibrosis” value ([6]; 25 mg/kg/day q.d. orally, H&E lung histology week 12) was “inhibits OVA-induced lung fibrosis in a dose dependent manner” and the “efficacy in inhibition compared with dexamethasone” value ([6]; dexamethasone 25 mg/kg/day q.d. orally) was “higher than dexamethasone”. The “% Cytotoxicity CBPI Index” value [1, 13] was 57.4%, the “% Micronucleated Cells” value [1, 13] was 1.45% and the “% Cytotoxicity CBPI Index” value [1, 14] was 62.2%. The “% Micronucleated Cells” value [1, 14] was 1.76%, the “% Cytotoxicity CBPI Index” value [1, 15] was 41.5% and the “% Micronucleated Cells” value [1, 15] was 1.64%. For the same molecule, the “% Cytotoxicity CBPI Index” value [1, 16] was 68.8%, the “% Micronucleated Cells” value [1, 16] was 1.94% and the “% Cytotoxicity CBPI Index” value [1, 17] was 47.3%. For the same molecule, the “% Micronucleated Cells” value [1, 17] was 1.26%, the “genotoxicity (micronucleus assay)” value ([1]; overall result of the assay) was “negative” and the Flat ([1]; second section (CHO + S9, HCA), 1.3E−04 M) was “CYTO (High cytotoxicity resulting in an insufficient number of scored cells (≥80% cytotoxicity))”. The “% Cytotoxicity CBPI Index” value [1, 18] was 53.1%, the “% Micronucleated Cells” value [1, 18] was 1.35% and the Flat ([1]; second section (CHO + S9, HCA), 2.5E−04 M) was “CYTO (High cytotoxicity resulting in an insufficient number of scored cells (≥80% cytotoxicity))”. For the same molecule, the “% Cytotoxicity CBPI Index” value [1, 19] was 58.8%, the “% Micronucleated Cells” value [1, 19] was 1.25% and the Flat ([1]; second section (CHO + S9, HCA), 6.3E−05 M) was “CYTO (High cytotoxicity resulting in an insufficient number of scored cells (≥80% cytotoxicity))”. The “% Cytotoxicity CBPI Index” value [1, 20] was 26.7%, the “% Micronucleated Cells” value [1, 20] was 1.29% and the “inhibition on CC14-induced liver fibrosis” value ([7]; 25, 50, 100 mg/kg/day q.d. orally, α-SMA IHC of liver day 43) was “dose-dependent”. For the same molecule, the “efficacy in inhibition compared with pirfenidone” value ([7]; pirfenidone 250 mg/kg/day q.d. orally) was “higher than pirfenidone”, the cytotoxicity at 0.00013 M [8, 13] was 37.6% and the cytotoxicity at 0.00025 M [8, 14] was 51.8%. For the same molecule, the cytotoxicity at 31 µM ([8]; first section (CHO + S9, HCA)) was 19.1%, the cytotoxicity at 0.0005 M [8, 16] was 61.7% and the cytotoxicity at 63 µM [8, 17] was 31.9%. For the same molecule, the cytotoxicity at 16 µM [8, 18] was 60.4%, the cytotoxicity at 31 µM ([8]; second section (CHO + S9, HCA)) was 69% and the cytotoxicity at 7.8 µM [8, 20] was 42.2%.
